In ChEMBL document CHEMBL1156272, “Discovery and SAR of novel pyrazole-based thioethers as cathepsin S inhibitors. Part 2: Modification of P3, P4, and P5 regions” (Bioorg Med Chem Lett, 2010):

Experiments:
[1] = biological target: T1, Cathepsin S (Homo sapiens, UniProt P25774); experiment: Inhibition of human cathepsin S by ADAM-28 substrate-based fluorescence assay
[2] = biological target: T1, Cathepsin S; experiment: Inhibition of cathepsin S in human JY cells assessed as accumulation of invariant chain p10 fragment after 24 hrs by Western blot analysis; format: cell-based
[3] = biological target: Voltage-gated inwardly rectifying potassium channel KCNH2 (Homo sapiens, UniProt Q12809); experiment: Inhibition of human ERG by astemizole binding assay
Sequence of Voltage-gated inwardly rectifying potassium channel KCNH2 (Q12809 whole entry): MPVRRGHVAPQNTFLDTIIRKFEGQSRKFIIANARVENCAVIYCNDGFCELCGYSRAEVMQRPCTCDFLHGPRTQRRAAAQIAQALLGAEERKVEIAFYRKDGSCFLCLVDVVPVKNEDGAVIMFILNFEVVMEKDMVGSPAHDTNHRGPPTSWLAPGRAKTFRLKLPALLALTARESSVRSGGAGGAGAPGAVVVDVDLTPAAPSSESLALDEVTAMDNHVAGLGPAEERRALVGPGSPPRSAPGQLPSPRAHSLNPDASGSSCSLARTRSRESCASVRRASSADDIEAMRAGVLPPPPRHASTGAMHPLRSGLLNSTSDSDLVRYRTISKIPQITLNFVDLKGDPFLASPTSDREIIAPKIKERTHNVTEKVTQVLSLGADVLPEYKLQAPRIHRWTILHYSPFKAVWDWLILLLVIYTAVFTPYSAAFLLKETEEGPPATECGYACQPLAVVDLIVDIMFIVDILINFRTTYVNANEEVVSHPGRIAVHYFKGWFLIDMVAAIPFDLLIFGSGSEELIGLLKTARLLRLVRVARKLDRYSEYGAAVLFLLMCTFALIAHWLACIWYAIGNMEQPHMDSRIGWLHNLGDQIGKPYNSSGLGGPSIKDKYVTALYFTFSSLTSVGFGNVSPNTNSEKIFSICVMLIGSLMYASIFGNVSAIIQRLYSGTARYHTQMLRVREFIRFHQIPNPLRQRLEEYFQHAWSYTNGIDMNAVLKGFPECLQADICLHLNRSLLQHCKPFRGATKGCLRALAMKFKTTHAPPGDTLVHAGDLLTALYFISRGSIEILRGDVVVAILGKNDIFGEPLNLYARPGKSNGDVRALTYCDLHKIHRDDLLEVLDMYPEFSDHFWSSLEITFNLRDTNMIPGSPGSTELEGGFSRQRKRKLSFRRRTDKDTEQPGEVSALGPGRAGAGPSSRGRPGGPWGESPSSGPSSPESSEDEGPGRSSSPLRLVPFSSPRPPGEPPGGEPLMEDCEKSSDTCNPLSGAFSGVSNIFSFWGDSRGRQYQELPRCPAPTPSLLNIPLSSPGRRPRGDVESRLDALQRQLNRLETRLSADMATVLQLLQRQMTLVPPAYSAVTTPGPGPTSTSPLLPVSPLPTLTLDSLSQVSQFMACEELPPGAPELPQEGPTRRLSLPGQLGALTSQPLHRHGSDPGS

T1 sequence (P25774 whole entry, the tested form may be a part): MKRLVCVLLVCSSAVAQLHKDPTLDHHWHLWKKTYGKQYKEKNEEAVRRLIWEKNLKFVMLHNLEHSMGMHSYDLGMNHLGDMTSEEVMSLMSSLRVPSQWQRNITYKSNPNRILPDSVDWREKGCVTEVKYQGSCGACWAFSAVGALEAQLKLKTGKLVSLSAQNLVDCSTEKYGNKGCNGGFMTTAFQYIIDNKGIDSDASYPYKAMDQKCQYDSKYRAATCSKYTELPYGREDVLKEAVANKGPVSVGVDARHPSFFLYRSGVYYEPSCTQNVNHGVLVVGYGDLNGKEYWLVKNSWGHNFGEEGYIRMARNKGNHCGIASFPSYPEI

Compound | IC50 [1] | IC50 [2] | inhibition (INH) [3]
CS(=O)(=O)N1CCc2c(c(-c3ccc(C(F)(F)F)c(SCCN4CCC(F)CC4)c3)nn2C[C@@H](O)CN2CCCCC2)C1 | 58 nM | 120 nM | 
CS(=O)(=O)N1CCc2c(c(-c3ccc(C(F)(F)F)c(SCCN4CCCCC4)c3)nn2CC(O)CN2CCC(c3ccccc3C#N)CC2)C1 (racemic) | 10 nM | 160 nM | Active
CS(=O)(=O)N1CCc2c(c(-c3ccc(C(F)(F)F)c(SCCN4CCOCC4)c3)nn2CC(O)CN2CCCCC2)C1 (racemic) | 420 nM | 2520 nM | 
NC(=O)C(=O)N1CCc2c(c(-c3ccc(C(F)(F)F)c(SCCN4CCC(F)CC4)c3)nn2C[C@@H](O)CN2CCCCC2)C1 | 70 nM | 190 nM | 
NC(=O)N1CCc2c(c(-c3ccc(C(F)(F)F)c(SCCN4CCC(F)CC4)c3)nn2C[C@@H](O)CN2CCCCC2)C1 | 235 nM |  | 
CS(=O)(=O)N1CCc2c(c(-c3ccc(C(F)(F)F)c(SCCN)c3)nn2CC(O)CN2CCCCC2)C1 (racemic) | 1130 nM |  | 
CS(=O)(=O)N1CCc2c(c(-c3ccc(C(F)(F)F)c(SCCN4CCCCC4)c3)nn2CC(O)CN2CCC(C(=O)N3CCCC3)CC2)C1 (racemic) |  | 96 nM | 
O=C(c1nc[nH]n1)N1CCc2c(c(-c3ccc(C(F)(F)F)c(SCCN4CCC(F)CC4)c3)nn2C[C@@H](O)CN2CCCCC2)C1 | 205 nM | 320 nM | 
OC(CN1CCCCC1)Cn1nc(-c2ccc(C(F)(F)F)c(SCCN3CCC(F)CC3)c2)c2c1CCNC2 (stereo unspecified) | 9600 nM |  | 
O=C(c1cccs1)N1CCc2c(c(-c3ccc(C(F)(F)F)c(SCCN4CCC(F)CC4)c3)nn2C[C@@H](O)CN2CCCCC2)C1 | 355 nM |  | 
CS(=O)(=O)N1CCc2c(c(-c3ccc(C(F)(F)F)c(SCCN4CCCC4)c3)nn2CC(O)CN2CCCCC2)C1 (racemic) |  | 458 nM | 
CC(O)C(=O)N1CCc2c(c(-c3ccc(C(F)(F)F)c(SCCN4CCC(F)CC4)c3)nn2C[C@@H](O)CN2CCCCC2)C1 (stereo partly specified) | 245 nM |  | 
CCCNCC(O)Cn1nc(-c2ccc(C(F)(F)F)c(SCCN3CCCCC3)c2)c2c1CCN(S(C)(=O)=O)C2 (racemic) | 595 nM |  | 
CS(=O)(=O)N1CCc2c(c(-c3ccc(C(F)(F)F)c(SCCN4CCCCC4)c3)nn2CC(O)CN2CCCC2)C1 (racemic) | 335 nM | 401 nM | 
CS(=O)(=O)N1CCc2c(c(-c3ccc(C(F)(F)F)c(SCCN4CCC(F)CC4)c3)nn2CC(O)CN2CCCCC2)C1 (racemic) |  | 493 nM | 
CS(=O)(=O)N1CCc2c(c(-c3ccc(C(F)(F)F)c(SCCN4CCCCC4)c3)nn2CC(O)CN2CCOCC2)C1 (racemic) | 325 nM | 889 nM | 
CS(=O)(=O)N1CCc2c(c(-c3ccc(C(F)(F)F)c(SCCN4CCCCC4)c3)nn2CC(O)CN2CCC(c3ccccn3)CC2)C1 (racemic) |  | 62 nM | Active
O=C(CO)N1CCc2c(c(-c3ccc(C(F)(F)F)c(SCCN4CCC(F)CC4)c3)nn2C[C@@H](O)CN2CCCCC2)C1 | 235 nM |  | 
CS(=O)(=O)N1CCc2c(c(-c3ccc(C(F)(F)F)c(SCCN4CCCCC4)c3)nn2CC(O)CN2CCC(C3CCCC3)CC2)C1 (racemic) | 218 nM | 81 nM | 
CS(=O)(=O)N1CCc2c(c(-c3ccc(C(F)(F)F)c(SCCN4CCCCC4)c3)nn2CC(O)CN2CCCCC2)C1 (racemic) | 204 nM | 335 nM | 
CS(=O)(=O)N1CCc2c(c(-c3ccc(C(F)(F)F)c(SCCN4CCCCC4)c3)nn2CC(O)CN2CCC(N3CCCC3=O)CC2)C1 (racemic) |  | 152 nM | 
CS(=O)(=O)N1CCc2c(c(-c3ccc(C(F)(F)F)c(SCCN4CCC(F)CC4)c3)nn2C[C@H](O)CN2CCCCC2)C1 | 395 nM | 810 nM | 
CS(=O)(=O)N1CCc2c(c(-c3ccc(C(F)(F)F)c(SCCN4CCCCC4)c3)nn2CC(O)CN2CCN(C3CC3)CC2)C1 (racemic) |  | 220 nM | 
CC(=O)N1CCc2c(c(-c3ccc(C(F)(F)F)c(SCCN4CCC(F)CC4)c3)nn2C[C@@H](O)CN2CCCCC2)C1 | 385 nM |  | 
